In test [1] the test system is A549. The test is described as follows: Induction of apoptosis in human A549 cells assessed as late apoptotic cells at 5 uM after 36 hrs by Annexin V/propidium iodide based flow cytometric analysis (reference value: 2.3%). The test is classed as functional. (In general: Flow cytometry measures light scatter and fluorescence of single cells or particles in a stream.)

Test [2] deals with A549. Briefly: Cytotoxic activity against human A549 cells assessed as reduction in cell viability after 72 hrs by SRB assay. The following applies: A549, 72 h. The test is classed as functional, cell-based. On the technique in general: In SRB staining, fixed cells bind dye roughly in proportion to their protein.
In the next test the test system is HCT-116. Briefly: Cytotoxic activity against human HCT116 cells assessed as reduction in cell viability. It counts as functional, cell-based.
The next test deals with SK-OV-3. Briefly: Cytotoxic activity against human SKOV3 cells assessed as reduction in cell viability after 72 hrs by SRB assay. The test is classed as functional, cell-based. As to conditions: SK-OV-3, 72 h.
The test system of the next test is HFF. The test is described as follows: Cytotoxic activity against HFF cells assessed as reduction in cell viability. The test is classed as cell-based. As to conditions: Homo sapiens.
The test system of another test is PC-3. Briefly: Cytotoxic activity against human PC3 cells assessed as reduction in cell viability after 72 hrs by SRB assay. The test is classed as functional, cell-based. As to conditions: PC-3, 72 h.
Another test relates to MDA-MB-231. The test is described as follows: Cytotoxic activity against human MDA-MB-231 cells assessed as reduction in cell viability. It counts as functional, cell-based.
The test system of a further test is SK-BR-3. Briefly: Cytotoxic activity against human SKBR3 cells assessed as reduction in cell viability. It counts as functional, cell-based.
For a further test, the system named is MCF7. The test is described as follows: Cytotoxic activity against human MCF7 cells assessed as reduction in cell viability. It counts as functional, cell-based.
Another test deals with LNCaP. The test is described as follows: Cytotoxic activity against human LNCAP cells assessed as reduction in cell viability. The test is classed as functional, cell-based.
In another test the test system is L02. The test is described as follows: Cytotoxic activity against human HL7702 cells. It counts as cell-based.
For test [3], the system named is A549. The test is described as follows: Induction of apoptosis in human A549 cells assessed as reduction in mitochondrial membrane potential at 5 uM after 24 hrs using JC-1 dye based spectrofluorometry. It counts as functional, cell-based.
In test [4] the test system is A549. Briefly: Induction of apoptosis in human A549 cells assessed as ROS generation at 1 to 100 uM after 18 hrs. It counts as functional, cell-based.
Test [5] has as its system A549. The test is described as follows: Induction of apoptosis in human A549 cells assessed as genomic DNA fragmentation at 5 uM after 24 hrs by FITC/DAPI staining based TUNEL assay. The test is classed as functional, cell-based.
For test [6], the system named is A549. Briefly: Effect on tubulin in human A549 cells at 1 to 100 uM after 18 hrs. The test is classed as cell-based.
Test [7] relates to A549. The test is described as follows: Induction of apoptosis in human A549 cells assessed as increase in cytochrome c level after 36 hrs by Western blot method. It counts as functional, cell-based. (In general: A western blot detects proteins with antibodies after separation by electrophoresis.)
Test [8] deals with A549. Briefly: Induction of apoptosis in human A549 cells assessed as increase in cleaved caspase-3 level after 36 hrs by Western blot method. The test is classed as functional, cell-based.
Test [9] deals with A549. The test is described as follows: Induction of apoptosis in human A549 cells assessed as increase in cleaved PARP level after 36 hrs by Western blot method. The test is classed as functional, cell-based.
The test system of test [10] is A549. Briefly: Induction of apoptosis in human A549 cells assessed as increase in Bax level after 36 hrs by Western blot method. It counts as functional, cell-based.
Test [11] concerns A549. The test is described as follows: Induction of apoptosis in human A549 cells assessed as decrease in Bcl-2 level after 36 hrs by Western blot method. The test is classed as functional, cell-based.
Test [12] relates to A549. Briefly: Induction of apoptosis in human A549 cells assessed as decrease in PARP level after 36 hrs by Western blot method. The test is classed as functional, cell-based.
The subject of test [13] is A549. The test is described as follows: Induction of apoptosis in human A549 cells assessed as early apoptotic cells at 5 uM after 36 hrs by Annexin V/propidium iodide based flow cytometric analysis (reference value: 0.5%). It counts as functional.
Test [14] deals with A549. The test is described as follows: Induction of apoptosis in human A549 cells assessed as necrotic cells at 5 uM after 36 hrs by Annexin V/propidium iodide based flow cytometric analysis (reference value: 0.2%). The test is classed as functional.
The subject of test [15] is A549. Briefly: Potency index, ratio of 5-FU IC50 to compound IC50 for human A549 cells. It counts as functional.

Usually pIC50 stands for −log10 of the IC50, conventionally taken in molar units.

pIC50: −log10 of the molar value. Calls of active or inactive are those of the source. No cut-off for these calls is given here.

Take `CCOCO[C@]12CCC[C@]3(CO1)c1ccc(C(C)C)c(OC)c1C(=O)C[C@@H]23`: the Activity in the test with A549 [1] was 15.8%; in the test on A549 [7], “Dose-dependent effect”; in the test with A549 [8], “Dose-dependent effect”; in the test with A549 [9] it was “Dose-dependent effect”; with A549 [10], “Dose-dependent effect”; with A549 [13] it was 1.3%. Further, the Activity with A549 [14] is on record as 1.3%. Also, the pIC50 is 5.88 with A549 [2]; 5.35 to 5.96 in the test with HCT-116; 5.80 in the test on SK-OV-3; 4.65 to 4.79 in the test on HFF; 5.59 in the test on PC-3; 5.35 to 5.96 in the test on MDA-MB-231. The pIC50 in the test on SK-BR-3 is 5.35 to 5.96; in the test on MCF7, 5.35 to 5.96; in the test with LNCaP, 5.35 to 5.96; with L02 it was 4.65 to 4.79. The outcome in the test on A549 [3], with A549 [5], with A549 [11] and in the test with A549 [12] was Active. Besides, the outcome in the test on A549 [4] and with A549 [6] was inactive. Further, the “Ratio IC50” value in the test on A549 [15] is 24.
As to `COC(=O)[C@]1(C)CCC[C@]2(C)c3ccc(C(C)C)cc3CC[C@@H]12` [METHYL DEHYDROABIETATE], the pIC50 in the test with A549 [2] was 4.38; in the test with SK-OV-3, 4.29; in the test on PC-3, 4.42.
The like results for `COc1c(C(C)C)ccc2c1CC[C@H]1C3=C(CC[C@]21C)C(=O)OC3` were, in that order, 4.01, 4.30 and 4.30.
Take `COc1c(C(C)C)ccc2c1CC[C@@]1(O)C3=C(CC[C@]21C)C(=O)OC3`: the pIC50 in the test with A549 [2], with SK-OV-3 and with PC-3 was below 4.00 each time.
On to `COc1cccc2c1CC[C@H]1[C@H]3COC(=O)[C@@]3(O)C(=O)C[C@]21C`, for which the pIC50 in the test on A549 [2], with SK-OV-3 and in the test on PC-3 was below 4.00 throughout.
On to `CC(C)(C)C(=O)OC[C@H]1[C@H](O)CC[C@]2(C)c3ccccc3CC[C@@H]12`, for which the pIC50 in the test with A549 [2] is 4.19; in the test with SK-OV-3, 4.36; in the test with PC-3, 4.31.
The like results for `C=C1[C@@H]2CC(=O)c3c(ccc(C(C)C)c3OC)[C@@]2(C)CC[C@@]1(O)CO` were, in that order, 4.60, 4.23 and 4.57.
On to `COC(=O)[C@]1(C)CCC[C@]2(C)c3ccc(C(C)C)c(OC)c3[C@H](O)C[C@@H]12`, for which the pIC50 in the test on A549 [2] was 4.12; with SK-OV-3, 4.14; with PC-3, 4.25.
Consider `COc1c(C(C)C)ccc2c1CC[C@H]1[C@H]3COC(=O)[C@H]3CC[C@]21C`, for which the pIC50 in the test with A549 [2], in the test with SK-OV-3 and in the test on PC-3 was below 4.00 throughout.

The record behind these values is ChEMBL document CHEMBL4000202, “Identification of a diverse synthetic abietane diterpenoid library for anticancer activity” (Bioorg Med Chem Lett, 2017).
